Broadly, the IC50 is the concentration that gives 50% inhibition.

From patent publication US11339111B2, “Polyketide compound and derivatives thereof for use in the prevention and treatment of a neurological disorder” (SOCIETE DES PRODUITS NESTLE S.A., priority 2017, dated 2022) come the findings set out here.

Read-outs that look alike come from different tables or passages of the source. A value given as a limit tells only on which side of the number the result lay.

Test [1] relates to human iPSc derived into astrocytes. Description: Lactate release dose response in human iPSc derived astrocytes. The class given is cell-based. To be noted: 2 hours treatment. As to the method: Dose response curves were established for compounds identified in the screen to stimulate lactate secretion. The EC50 values for the stimulation of lactate secretion were determined using primary human IPS cell derived astrocytes.
Differentiated human iPSCs (iCell astrocytes, and iCell cardiomyocytes) were obtained from Cellular Dynamics International (CDI, Madison, Wis., USA). iCell astrocytes were cultured in DMEM supplemented with 10% fetal calf serum and N2 complement. iCell cardiomyocytes were maintained in a medium supplied by CDI. Cell cultures were kept in a humidified atmosphere (5% CO2) at 37° C.
Dose response of compounds on lactate release from human iPSc derived into astrocyte fitted with a log (agonist) vs response variable slope to extract efficacy (EC50). Mean±SEM in duplicate.
The unsaturated polyketide/macrocyclic lactone compound mentioned throughout the Examples section is proposed to have the structure corresponding to Compound A as described herein. The toxicity expressed in log IC50 (ATP content after 24 hours compound treatment on human iPSc derived into cardiomyocyte) was compared against the lactate release in log EC50 (lactate secretion after 2 hours compound treatment in human iPSc derived into astrocytes).
Y-axis: relative fluorescence unit, X-axis: logarithm concentration of the compound in mg/ml for fraction and molar for pure compound. […]

Test [2] has as its system human iPSc derived into cardiomyocyte. The test can be described thus: Toxicity - ATP content (CellTiter-Glo). The class given is cell-based. The note with it: ATP content after 24 hours. As to the method: iCell Cardiomyocytes were seeded in 384-well plates. Eight days later cells were treated for 24 hours with compounds. Cell viability was determined by the quantification of intracellular ATP after cell lysis. ATP was used as an indicator of metabolically active cells. ATP was measured using a luminescent cell viability assay (CellTiter-Glo®; […]). Luminescence was measured after 20 min in a Bioteck Synergie Neo multimode reader.
Toxicity of the unsaturated polyketide/macrocyclic lactone compounds were evaluated in human IPS cell derived cardiomyocytes by measuring total ATP in cell lysates.
Dose response of compounds on human iPSc derived into cardiomyocyte with evaluation of the ATP level using cell titer glow. Results were normalized between untreated cells (100%) and positive control (0%).
The unsaturated polyketide/macrocyclic lactone compound mentioned throughout the Examples section is proposed to have the structure corresponding to Compound A as described herein. […]
Y-axis: relative fluorescence unit in percentage, X-axis: logarithm concentration of the compound in mg/ml for fraction and molar for pure compound. […]
In general terms: In ATP-based viability assays light output follows the ATP content of the culture.

With `C/C1=C\C(C)C(=O)CC(O)/C(C)=C/C(C)CC(C)CCC(C(C)C(=O)O)OC(=O)C(C)C1` (stereo not shown), the EC50 in test [1] (pure compound (head: mg/ml or M; molar for pure compound), read-out: Astrocytes Lactate release EC50) is 1.6 µM; in test [1] (pure compound, log of molar concentration, read-out: Astrocytes Lactate release logEC50 (converted)), 2 µM. Besides, the IC50 in test [2] (pure compound (molar), read-out: Cardiomyocytes Toxicity IC50) was above 100 µM; in test [2] (pure compound, log of molar concentration, read-out: Cardiomyocytes Toxicity log IC50 (converted)), above 100 µM.
